Target: T1, hMAGL (MAGL-overexpressing membrane preparations from transiently transfected HEK293T cells) (Homo sapiens, UniProt Q99685)
T1 construct: expressed in transfected cells; host or cells: HEK293T (transient transfection), membrane preparations
T1 sequence (Q99685 1-303): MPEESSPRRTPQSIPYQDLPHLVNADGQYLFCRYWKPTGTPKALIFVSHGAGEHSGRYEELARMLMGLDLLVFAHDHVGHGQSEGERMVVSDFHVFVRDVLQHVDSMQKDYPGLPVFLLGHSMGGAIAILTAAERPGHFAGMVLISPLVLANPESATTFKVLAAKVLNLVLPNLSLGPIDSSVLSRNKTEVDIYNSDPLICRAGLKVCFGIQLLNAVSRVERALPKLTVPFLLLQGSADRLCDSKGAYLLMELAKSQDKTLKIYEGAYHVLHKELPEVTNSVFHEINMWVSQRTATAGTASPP
Experiment: MAGL activity assay (2-AG hydrolysis, glycerol coupled to Amplifu Red fluorescence)
Type: biochemical
Settings: hMAGL-overexpressing HEK293T membranes, 25 μM 2-AG substrate, 20 min. inhibitor incubation
Text: The MAGL activity assay is based on the production of glycerol from 2-arachidonoylglycerol (2-AG) hydrolysis by MAGL-overexpressing membrane preparations from transiently transfected HEK293T cells, as previously reported in van der Wel T et al., “A natural substrate-based fluorescence assay for inhibitor screening on diacylglycerol lipase”, J Lipid Res., 2015, 56(4), 927-35. The produced glycerol is coupled to the oxidation of commercially available Amplifu™ Red (Sigma-Aldrich Chemie N.V., Zwijndrecht, Netherlands) via a multi-enzyme cascade, resulting in a fluorescent signal from the dye resorufin.
Standard assays were performed in HEMNB buffer (50 mM HEPES pH 7.4, 1 mM EDTA, 5 mM MgCl2, 100 mM NaCl, 0.5% (w/v) BSA) in black, flat bottom 96-wells plates. Final protein concentration of membrane preparations from overexpressing hMAGL HEK293T cells was 1.5 μg/mL (0.3 μg per well). Inhibitors were added from 40× concentrated DMSO stocks. […] Final assay concentrations: 0.2 U/mL GK, GPO and HRP, 0.125 mM ATP, 10 μM Amplifu™ Red, 25 μM 2-AG, 5% DMSO, 0.5% ACN in a total volume of 200 μL.
For IC50 determination, the MAGL-overexpressing membranes were incubated with different inhibitor concentrations. Slopes of corrected fluorescence in time were determined in the linear interval of t=10 to t=35 min and then scaled to the corrected positive control of hMAGL-overexpressing membranes treated with vehicle (DMSO) as a 100% activity reference point. The data was exported to GraphPad Prism 5.0 and analysed in a non-linear dose-response analysis with variable slope.

| Structure (SMILES) | IC50 [nM] |
| --- | --- |
| CCOC(=O)CSc1ccc(C(=O)N2CCN(c3cccc(Cl)c3)[C@H](C)[C@H]2C)cc1Cl (racemic) [Example 52, (±) Ethyl 2-((2-chloro-4-(4-(3-chlorophenyl)-trans-2,3-dimethylpiperazine-1-carbonyl)phenyl)thio)acetate] | > 10000 |
| CCOC(=O)CS(=O)(=O)c1ccc(C(=O)N2CCN(c3cccc(Cl)c3)[C@H](C)[C@H]2C)cc1Cl (racemic) [Example 53, (±) Ethyl 2-((2-chloro-4-(4-(3-chlorophenyl)-trans-2,3-dimethylpiperazine-1-carbonyl)phenyl)sulfonyl)acetate] | 339 |
| CCOC(=O)C[S+]([O-])c1ccc(CN2CCN(c3cccc(Cl)c3)[C@H](C)[C@H]2C)cc1Cl (mixture of isomers) [Example 54, (±) Ethyl 2-((2-chloro-4-((4-(3-chlorophenyl)-trans-2,3-dimethylpiperazin-1-yl)methyl)phenyl)sulfinyl)acetate] | 6.17 |
| CCOC(=O)CC(=O)c1ccc(C(=O)N2CCN(c3cccc(Cl)c3)[C@H](C)[C@H]2C)cc1Cl (racemic) [Example 55, (±) Ethyl 3-(2-chloro-4-(4-(3-chlorophenyl)-trans-2,3-dimethylpiperazine-1-carbonyl)phenyl)-3-oxopropanoate] | 1150 |
| CCC(C)OC(=O)C[S+]([O-])c1ccc(C(=O)N2CCN(c3cccc(Cl)c3)[C@H](C)[C@H]2C)cc1Cl (mixture of isomers) [Example 57, (±) sec-Butyl 2-((2-chloro-4-(4-(3-chlorophenyl)-trans-2,3-dimethylpiperazine-1-carbonyl)phenyl)sulfinyl)acetate] | 3.89 |
| C[C@@H]1[C@@H](C)N(c2cccc(Cl)c2)CCN1C(=O)c1ccc([S+]([O-])CC(=O)OC2CCC2)c(Cl)c1 (mixture of isomers) [Example 58, (±) Cyclobutyl 2-((2-chloro-4-(4-(3-chlorophenyl)-trans-2,3-dimethylpiperazine-1-carbonyl)phenyl)sulfinyl)acetate] | 4.17 |
| C[C@@H]1[C@@H](C)N(c2cccc(Cl)c2)CCN1C(=O)c1ccc([S+]([O-])CC(=O)OC2CCCCC2)c(Cl)c1 (mixture of isomers) [Example 60, (±) Cyclohexyl 2-((2-chloro-4-(4-(3-chlorophenyl)-trans-2,3-dimethylpiperazine-1-carbonyl)phenyl)sulfinyl)acetate] | 2.95 |
| COCCOC(=O)C[S+]([O-])c1ccc(C(=O)N2CCN(c3cccc(Cl)c3)[C@@H](C)[C@@H]2C)cc1Cl (mixture of isomers) [Example 65, (±) 2-Methoxyethyl 2-((2-chloro-4-(4-(3-chlorophenyl)-trans-2,3-dimethylpiperazine-1-carbonyl)phenyl)sulfinyl)acetate] | 9.12 |
| COCC(C)OC(=O)C[S+]([O-])c1ccc(C(=O)N2CCN(c3cccc(Cl)c3)[C@@H](C)[C@@H]2C)cc1Cl (mixture of isomers) [Example 66, (±) 1-Methoxypropan-2-yl 2-((2-chloro-4-(4-(3-chlorophenyl)-trans-2,3-dimethylpiperazine-1-carbonyl)phenyl)sulfinyl)acetate] | 46.8 |
| C[C@H]1[C@H](C)N(c2cccc(Cl)c2)CCN1C(=O)c1ccc([S+]([O-])CC(=O)OC2CCOCC2)c(Cl)c1 (mixture of isomers) [Example 67, (±) tetraHydro-2H-pyran-4-yl 2-((2-chloro-4-(4-(3-chlorophenyl)-trans-2,3-dimethylpiperazine-1-carbonyl)phenyl)sulfinyl)acetate] | 12.9 |
| CCOC(=O)C[S+]([O-])c1ccc(C(=O)N2CCN(c3cncc(Cl)c3)[C@@H](C)[C@@H]2C)cc1Cl (mixture of isomers) [Example 68, (±) Ethyl 2-((2-chloro-4-(-4-(5-chloropyridin-3-yl)-trans-2,3-dimethylpiperazine-1-carbonyl)phenyl)sulfinyl)acetate] | 20.9 |
| CCOC(=O)C[S+]([O-])c1ccc(C(=O)N2CCN(c3ccnc(Cl)c3)[C@@H](C)[C@@H]2C)cc1Cl (mixture of isomers) [Example 69, (±) Ethyl 2-((2-chloro-4-(-4-(2-chloropyridin-4-yl)-trans-2,3-dimethylpiperazine-1-carbonyl)phenyl)sulfinyl) acetate] | 87.1 |
| CCOC(=O)C[S+]([O-])c1ccc(C(=O)N2CCN(c3cccc(Cl)n3)[C@@H](C)[C@@H]2C)cc1Cl (mixture of isomers) [Example 70, (±) Ethyl 2-((2-chloro-4-(-4-(6-chloropyridin-2-yl)-trans-2,3-dimethylpiperazine-1-carbonyl)phenyl)sulfinyl)acetate] | 9.12 |
| CCOC(=O)C[S+]([O-])c1ccc(C(=O)N2CCN(c3cc(Cl)ccn3)[C@@H](C)[C@@H]2C)cc1Cl (mixture of isomers) [Example 71, (±) Ethyl 2-((2-chloro-4-(-4-(4-chloropyridin-2-yl)-trans-2,3-dimethylpiperazine-1-carbonyl)phenyl)sulfinyl)acetate] | 8.71 |
| C[C@H]1[C@H](C)N(c2cccc(Cl)c2)CCN1C(=O)c1ccc(SCC(=O)C(F)(F)F)c(Cl)c1 (racemic) [Example 72, (±) 3-((2-Chloro-4-(4-(3-chlorophenyl)-trans-2,3-dimethylpiperazine-1-carbonyl)phenyl)thio)-1,1,1-trifluoropropan-2-one] | 20.9 |
| C[C@H]1[C@H](C)N(c2cccc(Cl)c2)CCN1C(=O)c1ccc([S+]([O-])CC(=O)C(F)(F)F)c(Cl)c1 (mixture of isomers) [Example 73, (±) 3-((2-Chloro-4-(4-(3-chlorophenyl)-trans-2,3-dimethylpiperazine-1-carbonyl)phenyl)sulfinyl)-1,1,1-trifluoropropan-2-one] | 7.41 |
| C[C@H]1[C@H](C)N(c2cccc(Cl)c2)CCN1C(=O)c1ccc([S+]([O-])CC(=O)c2ncco2)c(Cl)c1 (mixture of isomers) [Example 74, (±) 2-((2-Chloro-4-(4-(3-chlorophenyl)-trans-2,3-dimethylpiperazine-1-carbonyl)phenyl)sulfinyl)-1-(oxazol-2-yl)ethan-1-one] | 204 |
| C[C@H]1[C@H](C)N(c2cccc(Cl)c2)CCN1C(=O)c1ccc([S+]([O-])CC(=O)c2nccs2)c(Cl)c1 (mixture of isomers) [Example 75, (±) 2-((2-Chloro-4-(4-(3-chlorophenyl)-trans-2,3-dimethylpiperazine-1-carbonyl)phenyl)sulfinyl)-1-(thiazol-2-yl)ethan-1-one] | 234 |
| Cc1cnc(C(=O)C[S+]([O-])c2ccc(C(=O)N3CCN(c4cccc(Cl)c4)[C@@H](C)[C@@H]3C)cc2Cl)o1 (mixture of isomers) [Example 76, (±) 2-((2-Chloro-4-(4-(3-chlorophenyl)-trans-2,3-dimethylpiperazine-1-carbonyl)phenyl)sulfinyl)-1-(5-methyloxazol-2-yl)ethan-1-one] | 380 |
| C[C@H]1[C@H](C)N(c2cccc(Cl)c2)CCN1C(=O)c1ccc([S+]([O-])CC(=O)C(F)F)c(Cl)c1 (mixture of isomers) [Example 77, (±) 3-((2-Chloro-4-(4-(3-chlorophenyl)-trans-2,3-dimethylpiperazine-1-carbonyl)phenyl)sulfinyl)-1,1-difluoropropan-2-one] | 2.34 |
| C[C@H]1[C@H](C)N(c2cccc(Cl)c2)CCN1C(=O)c1ccc([S+]([O-])CC(=O)C(C)(F)F)c(Cl)c1 (mixture of isomers) [Example 78, (±) 1-((2-Chloro-4-(4-(3-chlorophenyl)-trans-2,3-dimethylpiperazine-1-carbonyl)phenyl)sulfinyl)-3,3-difluorobutan-2-one] | 1.48 |
| C[C@H]1[C@H](C)N(c2cccc(Cl)c2)CCN1C(=O)c1ccc([S+]([O-])CC(=O)C(F)(F)c2ccccc2)c(Cl)c1 (mixture of isomers) [Example 80, (±) 3-((2-Chloro-4-(4-(3-chlorophenyl)-trans-2,3-dimethylpiperazine-1-carbonyl)phenyl)sulfinyl)-1,1-difluoro-1-phenylpropan-2-one] | 87.1 |
| C[C@H]1[C@H](C)N(c2cccc(Cl)n2)CCN1C(=O)c1ccc([S+]([O-])CC(=O)C(C)(F)F)c(Cl)c1 (mixture of isomers) [Example 81, (±) 1-((2-chloro-4-(4-(6-chloropyridin-2-yl)-trans-2,3-dimethylpiperazine-1-carbonyl)phenyl)sulfinyl)-3,3-difluorobutan-2-one] | 0.851 |
| CCC(F)(F)C(=O)C[S+]([O-])c1ccc(C(=O)N2CCN(c3cccc(Cl)n3)[C@@H](C)[C@@H]2C)cc1Cl (mixture of isomers) [Example 82, (±) 1-((2-Chloro-4-(4-(6-chloropyridin-2-yl)-trans-2,3-dimethylpiperazine-1-carbonyl)phenyl)sulfinyl)-3,3-difluoropentan-2-one] | 0.123 |

From US20230121721A1, “MONOACYLGLYCEROL LIPASE INHIBITORS” (STICHTING HET NEDERLANDS KANKER INSTITUUT - ANTONI VAN …, priority 2020, published 2023)
